Assay results reported in patent US20240285596A1, “SOLID DOSAGE FORMS AND DOSING REGIMENS COMPRISING (2R,3S,4S,5R)-4-[[3-(3,4-DIFLUORO-2-METHOXY-PHENYL)-4,5-DIMETHYL-5-(TRIFLUOROMETHYL) TETRAHYDROFURAN-2-CARBONYL]AMINO]PYRIDINE-2-CARBOXAMIDE” (VERTEX PHARMACEUTICALS INCORPORATED, priority 2021, published 2024).

Columns and labels:
[1] = target: human NaV 1.8 (Homo sapiens, UniProt Q9Y5Y9); assay: E-VIPR assay detecting and measuring NaV inhibition properties; format: cell-based; details: HEK cells expressing a truncated form of human NaV 1.8; E-VIPR membrane potential readout
Sequence of human NaV 1.8 (Q9Y5Y9 126-1722 limits assumed): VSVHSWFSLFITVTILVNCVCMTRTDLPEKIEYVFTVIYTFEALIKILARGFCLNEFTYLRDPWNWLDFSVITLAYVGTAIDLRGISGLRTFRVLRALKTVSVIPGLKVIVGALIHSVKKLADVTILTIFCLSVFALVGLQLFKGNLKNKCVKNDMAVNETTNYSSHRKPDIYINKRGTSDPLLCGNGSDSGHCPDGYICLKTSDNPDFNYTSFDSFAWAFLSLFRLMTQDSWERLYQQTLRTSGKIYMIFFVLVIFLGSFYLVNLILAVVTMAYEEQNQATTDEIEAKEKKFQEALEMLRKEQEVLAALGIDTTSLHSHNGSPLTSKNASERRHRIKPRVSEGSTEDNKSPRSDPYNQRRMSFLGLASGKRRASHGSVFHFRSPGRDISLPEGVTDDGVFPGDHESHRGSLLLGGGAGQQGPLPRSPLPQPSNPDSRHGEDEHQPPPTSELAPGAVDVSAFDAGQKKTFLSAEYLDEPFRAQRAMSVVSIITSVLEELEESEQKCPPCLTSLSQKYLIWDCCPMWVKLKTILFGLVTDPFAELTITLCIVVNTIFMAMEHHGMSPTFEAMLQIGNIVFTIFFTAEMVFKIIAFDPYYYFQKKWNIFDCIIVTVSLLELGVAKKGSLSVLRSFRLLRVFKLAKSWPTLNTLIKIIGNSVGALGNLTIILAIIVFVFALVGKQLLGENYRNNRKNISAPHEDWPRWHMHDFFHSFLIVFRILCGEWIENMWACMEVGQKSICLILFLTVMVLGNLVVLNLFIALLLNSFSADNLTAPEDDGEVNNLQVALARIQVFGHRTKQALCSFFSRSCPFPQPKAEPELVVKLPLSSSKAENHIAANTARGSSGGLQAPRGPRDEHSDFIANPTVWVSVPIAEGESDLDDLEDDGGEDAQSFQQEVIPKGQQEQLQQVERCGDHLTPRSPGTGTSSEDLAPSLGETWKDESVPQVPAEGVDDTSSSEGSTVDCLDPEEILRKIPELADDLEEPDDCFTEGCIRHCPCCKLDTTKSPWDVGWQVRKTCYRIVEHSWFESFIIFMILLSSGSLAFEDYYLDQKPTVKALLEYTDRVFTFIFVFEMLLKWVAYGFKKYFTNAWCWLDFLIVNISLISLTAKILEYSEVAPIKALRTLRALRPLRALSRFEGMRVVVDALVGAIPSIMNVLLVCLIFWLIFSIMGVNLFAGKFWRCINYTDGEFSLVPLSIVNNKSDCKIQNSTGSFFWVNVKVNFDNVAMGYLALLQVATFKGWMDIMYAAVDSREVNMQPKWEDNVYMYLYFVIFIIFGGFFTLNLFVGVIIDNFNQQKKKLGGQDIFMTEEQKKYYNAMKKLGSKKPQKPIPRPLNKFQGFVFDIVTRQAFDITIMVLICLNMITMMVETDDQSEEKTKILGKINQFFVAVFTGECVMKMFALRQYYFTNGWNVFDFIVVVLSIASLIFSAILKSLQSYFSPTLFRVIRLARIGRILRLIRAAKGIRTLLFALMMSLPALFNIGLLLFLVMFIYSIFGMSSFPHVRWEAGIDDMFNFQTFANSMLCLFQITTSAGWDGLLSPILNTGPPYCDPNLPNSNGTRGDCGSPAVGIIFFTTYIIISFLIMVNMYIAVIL
Text: Sodium ion channels are voltage-dependent proteins that can be activated by inducing membrane voltage changes by applying electric fields. The electrical stimulation instrument and methods of use, referred to as E-VIPR, are described in International Publication No. WO 2002/008748 A3 and C.-J. Huang et al. Characterization of voltage-gated sodium channel blockers by electrical stimulation and fluorescence detection of membrane potential, 24 Nature Biotech. 439-46 (2006), both of which are incorporated by reference in their entirety. The instrument comprises a microtiter plate handler, an optical system for exciting the coumarin dye while simultaneously recording the coumarin and oxonol emissions, a waveform generator, a current- or voltage-controlled amplifier, and parallel electrode pairs that are inserted into assay plate wells. […]
5 mM DiSBAC6(3), a voltage sensitive oxonol acceptor (CAS number 169211-44-3; 5-[3-(1,3-dihexylhexahydro-4,6-dioxo-2-thioxo-5-pyrimidinyl)-2-propen-1-ylidene]-1,3-dihexyldihydro-2-thioxo-4,6(1H,5H)-pyrimidinedione), in dry DMSO. The preparation of DiSBAC6(3) is analogous to that of DiSBAC4(3) as described in Voltage Sensing by Fluorescence Resonance Energy Transfer in Single Cells, Gonzalez, J. E. and Tsien, R. Y. (1995) Biophys. […]

[2] = system: subjects with pain following bunionectomy; assay: Randomized, double-blind, placebo-controlled study of efficacy and safety in subjects with pain following bunionectomy; details: for Mean SPID48: oral, NPRS 0-48 h
Text: Bunionectomy is a well-established, multi-dose, surgical, acute pain model. A randomized, double-blind study design was used to avoid observer bias and reduce symptoms or outcomes arising from the subjects' knowledge of treatment.
Male and female patients between the ages of 18 and 75 years (inclusive) with pain that is ≥4 on an 11-point Numeric Pain Rating Scale (NPRS) and is moderate or severe on the Verbal Categorical Rating Scale (VRS) after bunionectomy are included in the study.
The investigational drug was administered orally in 10 mg tablets. […] The investigational drug was administered every 12 hours (q12 h). A low, mid, and high dosing regime were tested. The first dose in the low dosing regime was 20 mg, and the subsequent doses were 10 mg g12 h. The first dose in the mid dosing regime was 60 mg, and the subsequent doses were 30 mg g12 h. The first dose in the high dosing regime was 100 mg, and the subsequent doses were 50 mg g12 h.
After a screening period, subjects receive a primary unilateral first metatarsal bunionectomy repair on Day minus one under regional anesthesia (Mayo and popliteal block). A continuous popliteal sciatic block infusion (0.2% ropivacaine) is started after surgery, and remains in place until approximately 3 AM on Day 1. After removal of the popliteal sciatic block, each subject is randomized when the subject requests the first dose of study drug for pain relief and reports pain ≥4 on the NPRS and moderate or severe pain on the VRS.
Randomization was stratified by site and baseline NPRS (<8 versus ≥8). To maintain the blind, all subjects receive the same number of capsules in a double-dummy design.
HB/APAP placebo capsules were administered every 6 hours (q6 h).
The final dose of HB/APAP was given 42 hours after the first dose.
11-point (0 to 10) Numeric Pain Rating Scale: NPRS scores are frequently used in bunionectomy studies and are recognized by the FDA as a valid pain intensity measure. On the 11-point NPRS, a score of 0 denotes no pain, and a score of 10 denotes the worst pain intensity imaginable. Subjects reported their pain on the 11-point NPRS immediately before their first dose of the study drug (baseline NPRS score) and at intervals over 48 hour period (i.e. 0.5, 1, 1.5, 2, 3, 4, 5, 6, 8, 12, 16, 20, 24, 28, 32, 36, 40, 44, and 48 hours (±5 minutes)) after the first dose of the study drug. Pain intensity is also recorded on the NPRS immediately before each administration of rescue medication. Pain intensity scores that are collected within 4 hours after a dose of rescue medication are deemed missing, and the missing values are imputed as the intensity recorded immediately before the administration of rescue medication.
SPID-48 is the sum of the pain intensity difference (PID) over the 48 hour time period. A pain intensity score of 0 (no pain) to 10 (worse possible pain) is obtained before starting the study and throughout the 48 time period. The pain score at each assessment time is subtracted from the baseline pain score to provide the total sum score or SPID-48. A higher SPID-48 is better and indicates a reduction in pain intensity compared to the baseline score.
4-point Verbal Categorical Rating Scale: Subjects report their pain on the 4-point VRS (none, mild, moderate, or severe) immediately before their first dose of the study drug (baseline VRS).
Safety evaluations include adverse events, clinical laboratory assessments, clinical evaluation of vital signs, electrocardiograms, and physical examinations.

[3] = system: patients undergoing abdominoplasty; assay: Study in patients undergoing abdominoplasty (NCT05034952); format: in vivo, human
[4] = High-dose: 100 mg first dose/50 mg every 12 hours, n = 60
[5] = Low-dose: 20 mg first dose/10 mg every 12 hours, n = 33
[6] = Mid-dose: 60 mg first dose/30 mg every 12 hours, n = 62

COc1c([C@H]2[C@H](C(=O)Nc3ccnc(C(N)=O)c3)O[C@@](C)(C(F)(F)F)[C@H]2C)ccc(F)c1F (single isomer, unassigned) [Compound 1]
IC50 [1]: < 0.01 µM
Mean SPID48 [2, 4]: 137.8
Mean SPID48 difference from placebo [2, 4]: 36.8
Mean SPID48 [2, 5]: 112.9
Mean SPID48 difference from placebo [2, 5]: 11.9
Mean SPID48 [2, 6]: 86.9
Mean SPID48 difference from placebo [2, 6]: −14.1
Onset of action ([2]; bunionectomy study): rapid and was sustained through the duration of assessment
SPID48 compared to placebo (primary endpoint), in words ([2]; high dose, recorded on NPRS): statistically significant improvement
SPID48, in words [3]: statistically significant improvement
